# Laboratory results taken from publication PMC11299021, “Machine learning-assisted substrate binding pocket engineering based on structural information” (Briefings in Bioinformatics, 2024).
# Target: T1, KvAP (Klebsiella variicola acid phosphatase) (Klebsiella variicola, UniProt B5XS64)
# T1 construct: gene KPK_3238; synthetic gene in pET-22b (NdeI/BlpI), E. coli BL21(DE3); His-Trap and Superdex 75 purified
# T1 sequence (B5XS64 20-248): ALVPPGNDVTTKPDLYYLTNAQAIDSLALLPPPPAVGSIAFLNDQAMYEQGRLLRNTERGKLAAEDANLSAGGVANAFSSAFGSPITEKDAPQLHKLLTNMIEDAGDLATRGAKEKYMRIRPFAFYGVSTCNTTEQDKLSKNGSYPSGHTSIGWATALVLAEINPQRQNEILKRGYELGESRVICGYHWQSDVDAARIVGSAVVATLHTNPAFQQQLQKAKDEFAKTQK
# Assay: p-nitrophenol release at […] nm (specific activity)
# Type: biochemical
# Settings: 200 mM p-NPP disodium salt, 50 mM acetate pH 5.0, 37 °C, 20 min
smiles,measurement,value
O=[N+]([O-])c1ccc(OP(=O)(O)O)cc1 [p-NPP],p-nitrophenol release at 405 nm (specific activity),The purified enzyme was used for measuring its activity against nitrophenyl phosphate (p-NPP)
